Where a name gives a salt, the structure may show the parent alone. Read-outs that look alike come from different tables or passages of the source.
What was measured:
LIMK2KD = target: T1, LIMK2KD (Homo sapiens, UniProt P53671); assay: Differential (dynamic) scanning fluorimetry (DSF) assay, LIMK2KD; format: binding
T1 construct: The cDNA coding for LIMK2 residues 330 to 632 was PCR amplified; His6 (N, cleaved yes); made in house; host or cells: baculovirus; Sf9 for virus, TriEx insect cells for expression
T1 sequence (P53671 330-632): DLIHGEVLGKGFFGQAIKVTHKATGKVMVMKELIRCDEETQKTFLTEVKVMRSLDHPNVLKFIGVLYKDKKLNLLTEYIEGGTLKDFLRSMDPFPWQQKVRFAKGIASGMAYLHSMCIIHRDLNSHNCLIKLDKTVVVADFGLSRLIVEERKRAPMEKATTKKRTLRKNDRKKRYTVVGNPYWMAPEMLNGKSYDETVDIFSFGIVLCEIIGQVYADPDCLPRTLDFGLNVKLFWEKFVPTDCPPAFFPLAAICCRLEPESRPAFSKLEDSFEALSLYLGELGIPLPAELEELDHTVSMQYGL

LIMK1KD = target: T2, LIMK1KD (Homo sapiens, UniProt P53667); assay: Differential (dynamic) scanning fluorimetry (DSF) assay, LIMK1KD; format: binding
T2 construct: His6 (N, cleaved yes); made in house; host or cells: baculovirus; Sf9 for virus, TriEx insect cells for expression
T2 sequence (P53667 330-637): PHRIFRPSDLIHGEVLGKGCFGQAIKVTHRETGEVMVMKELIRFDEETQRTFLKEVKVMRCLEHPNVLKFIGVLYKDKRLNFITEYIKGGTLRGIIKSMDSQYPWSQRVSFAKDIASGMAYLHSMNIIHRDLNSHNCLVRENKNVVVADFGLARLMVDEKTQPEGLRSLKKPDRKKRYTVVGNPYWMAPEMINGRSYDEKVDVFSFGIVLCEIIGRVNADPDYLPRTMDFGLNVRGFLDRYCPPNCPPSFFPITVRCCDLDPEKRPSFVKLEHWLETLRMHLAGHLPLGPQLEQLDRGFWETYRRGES

[1] = LIMK2KD, compound 10 µM, single shot, 10 µM
[2] = 2 µM LIMK1KD, compound 10 µM, single shot, read-out: TM Shift LIMK1 (K)
[3] = LIMK2KD, compound 10 µM, single shot
[4] = 2 µM LIMK1KD, compound 10 µM, single shot
[5] = LIMK2KD, compound 10 µM, single shot, read-out: TM Shift LIMK2 (K)

Row | SMILES | ΔTm at 10 µM (LIMK1KD; [2]) [°C] | TM Shift LIMK2 (K) (LIMK2KD; [3]) | TM Shift LIMK1 (K) (LIMK1KD; [4]) | ΔTm at 10 µM (LIMK2KD; [5]) [°C] | other results
1 | CCN(CC)CCNC(=O)c1c(C)[nH]c(/C=C2\C(=O)Nc3ccc(F)cc32)c1C [Sunitinib] | 1.8 |  |  |  | TM Shift LIMK2 (K) (LIMK2KD; [1]): -0.1 K
2 | N#C/C(=C(/N)Sc1ccc(N)cc1)c1ccccc1C(F)(F)F [SL-327] |  | 0.7 | 0.7 |  | 
3 | COc1cc(OC2CCN(C)CC2)ccc1Nc1ncc2c(n1)n(C1CCCC1)c(=O)n2C [AZ3146] | 0.4 |  |  | 0 | 
4 | CCOc1cc2ncc(C#N)c(Nc3ccc(F)c(Cl)c3)c2cc1NC(=O)/C=C/CN(C)C [Pelitinib (EKB-569), Pelitinib] | -0.7 |  |  | 1.5 | 
5 | COc1ccc(C(=O)Nc2sc3c(c2C(N)=O)CCCC3)cc1OC [TCS 359] |  | 1.1 | 1.3 |  | 
6 | Cc1ccccc1CN1C(=O)C2=C(CCN(Cc3ccccc3)C2)N2CCN=C12 [TIC10] |  | -1.2 | 0.5 |  | 
7 | CCn1c(-c2nonc2N)nc2cnc(Oc3cccc(NC(=O)c4ccc(OCCN5CCOCC5)cc4)c3)cc21 [GSK269962] |  | 0.1 | 1.0 |  | 
8 | Cc1cccc(-c2nn3c(c2-c2ccnc4ccc(C(N)=O)cc24)CCC3)n1 [Galunisertib] | 0.3 |  |  | -0.5 | 
9 | Cc1[nH]c(/C=C2\C(=O)Nc3ccc(S(=O)(=O)Cc4c(Cl)cccc4Cl)cc32)c(C)c1C(=O)N1CCC[C@@H]1CN1CCCC1 [PHA-665752] | 1.3 |  |  | -0.4 | 
10 | COCCOc1ccc2c(c1)ncn2-c1ccc2cccc(N3CCC(N)CC3)c2n1 [CP-673451] | 0.9 |  |  | 1.9 | 
11 | Cn1c(Nc2ccc(C(F)(F)F)cc2)nc2cc(Oc3ccnc(-c4ncc(C(F)(F)F)[nH]4)c3)ccc21 [RAF265 (CHIR-265)] | 1.1 |  |  | 5.1 | 
12 | COc1c(C)c(C(=O)c2ccc(N)c(C(=O)[O-])c2)n2ccccc12.[Na+] [SSR128129E] |  | 2.4 | -0.6 |  | 
13 | CC(C)(C#N)c1ccc(N2C(=O)OCc3cnc4ccc(-c5cnc6ccccc6c5)cc4c32)cc1 [ETP-46464] |  | -0.5 | -0.5 |  | 
14 | O=C(Nc1c[nH]nc1-c1nc2ccc(CN3CCOCC3)cc2[nH]1)NC1CC1 [AT9283] | 9 |  |  | 4 | 
15 | COc1ccc(-c2ccc3c(N4CCOCC4)nc(N4C[C@@H](C)O[C@@H](C)C4)nc3n2)cc1CO [KU-0063794] | 0.3 |  |  | 2 | 
16 | COc1ccc(CNC(=O)Nc2ncc([N+](=O)[O-])s2)cc1 [AR-A014418] |  | 1.0 | 1.4 |  | 
17 | CCc1cc2c(cc1N1CCC(N3CCOCC3)CC1)C(C)(C)c1[nH]c3cc(C#N)ccc3c1C2=O [Alectinib (CH5424802), Alectinib] | -1.6 |  |  | 1.1 | 
18 | CC[C@H](Nc1ncnc2[nH]cnc12)c1nc2cccc(F)c2c(=O)n1-c1ccccc1 [Idelalisib] |  |  | 0.5 |  | TM Shift LIMK2 (K) (LIMK2KD; [1]): -0.8 K; TM Shift LIMK2 (K) (LIMK2KD; LIMK2KD, compound 10 µM, single shot, listed as CAL-101 (Idelalisib, GS-1101), 10 µM): 1.8 K; TM Shift LIMK1 (K) (LIMK1KD; 2 µM LIMK1KD, compound 10 µM, single shot, listed as CAL-101 (Idelalisib, GS-1101)): -0.1 K
19 | Cn1cnc2c(F)c(Nc3ccc(Br)cc3Cl)c(C(=O)NOCCO)cc21 [Selumetinib (AZD6244), Selumetinib] | 0.1 |  |  | 0.6 | 
20 | COc1cc2c(Oc3ccc4[nH]c(C)cc4c3F)ncnc2cc1OCCCN1CCCC1 [Cediranib (AZD2171), Cediranib] | -0.2 |  |  | 0.5 | 
21 | CC(C)CCN1c2nc(Nc3cc(F)c(O)c(F)c3)ncc2N(C)C(=O)C1C (stereo not shown) [BI-D1870] |  | 3.9 | 2.2 |  | 
22 | CCCS(=O)(=O)Nc1ccc(F)c(C(=O)c2c[nH]c3ncc(-c4ccc(Cl)cc4)cc23)c1F [Vemurafenib (PLX4032, RG7204), Vemurafenib] | 1.5 |  |  | 6 | 
23 | C[C@@H](Oc1cc(-c2cnn(C3CCNCC3)c2)cnc1N)c1c(Cl)ccc(F)c1Cl [Crizotinib (PF-02341066), Crizotinib] | 3.9 |  |  | 1.4 | 

Row | SMILES | ΔTm at 10 µM (LIMK1KD; [2]) [°C] | TM Shift LIMK2 (K) (LIMK2KD; [3]) | TM Shift LIMK1 (K) (LIMK1KD; [4]) | ΔTm at 10 µM (LIMK2KD; [5]) [°C] | other results
24 | Cc1cnc(Nc2ccc(N3CCN(C)CC3)cc2)nc1Nc1cccc(S(=O)(=O)NC(C)(C)C)c1 [TG101209] |  | 3.1 | 2.4 |  | 
25 | CCCNC(=O)Nc1ccc(Oc2ncnc3cc(OC)c(OC)cc23)cc1Cl [KRN 633] | 1.9 |  |  | 1.4 | 
26 | Nc1nc(Nc2ccc(S(N)(=O)=O)cc2)nn1C(=O)c1c(F)cccc1F [JNJ-7706621] | 8.2 |  |  | 5.8 | 
27 | N#CC(C#N)=Cc1ccc(O)c(O)c1 [AG-18] |  | 0.6 | 0.1 |  | 
28 | CN(c1ccccc1CNc1nc(Nc2ccc3c(c2)CC(=O)N3)ncc1C(F)(F)F)S(C)(=O)=O [PF 431396] |  | 0.2 | 2.9 |  | 
29 | CNC(=O)c1ccccc1Sc1ccc2c(/C=C/c3ccccn3)n[nH]c2c1 [Axitinib] | 2 |  |  | -0.7 | 
30 | Nc1ncnc2c1c(-c1cccc(OCc3ccccc3)c1)cn2C1CC(CN2CCCC2)C1 (stereo not shown) [NVP-ADW742] |  | 0.1 | 0.2 |  | 
31 | C[C@@H](Oc1ccc2[nH]nc(/C=C/c3cnn(CCO)c3)c2c1)c1c(Cl)cncc1Cl [LY2874455] | 2.5 |  |  | 0.1 | 
32 | Cc1cc(Nc2nc(N[C@@H](C)c3ncc(F)cn3)ncc2Cl)n[nH]1 [AZD1480] | 4.7 |  |  | 0.6 | 
33 | CC(C)(C)n1nc(-c2ccc(Cl)cc2)c2c(N)ncnc21 [PP2] |  | 2.4 | 2.0 |  | 
34 | CO[C@H]1C[C@@H]2CC[C@@H](C)[C@@](O)(O2)C(=O)C(=O)N2CCCC[C@H]2C(=O)O[C@H]([C@H](C)C[C@@H]2CC[C@@H](OP(C)(C)=O)[C@H](OC)C2)CC(=O)[C@H](C)/C=C(\C)[C@@H](O)[C@@H](OC)C(=O)[C@H](C)C[C@H](C)/C=C/C=C/C=C/1C [Ridaforolimus (Deforolimus, MK-8669), Ridaforolimus] | 0.1 |  |  | 0.2 | 
35 | CN(C)Cc1cccc(N/C(=C2\C(=O)Nc3cc(C(=O)N(C)C)ccc32)c2ccccc2)c1 [BIX 02189] |  | 4.5 | 0.1 |  | 
36 | CCCCCCCCc1ccc(CCC(N)(CO)CO)cc1 [Fingolimod (FTY720) HCl, Fingolimod] |  |  |  |  | ΔTm at 10 µM (LIMK2KD; read-out: TM Shift LIMK2 (K), LIMK2KD, compound 10 µM, single shot): 1.1 °C; ΔTm at 10 µM (LIMK1KD; read-out: TM Shift LIMK1 (K), 2 µM LIMK1KD, compound 10 µM, single shot): -0.7 °C
37 | NC(=O)c1ccc(N(C(N)=O)c2c(F)cccc2F)nc1-c1ccc(F)cc1F [VX-702] | 0.6 |  |  | -0.6 | 
38 | O=C(Nc1cc(C(F)(F)F)cc(C(F)(F)F)c1)c1cc(Cl)ccc1O [IMD 0354] | -0.6 |  |  | 1.4 | 
39 | CCC(=O)N1CCN(c2ccc(-n3c(=O)ccc4cnc5ccc(-c6cnc7ccccc7c6)cc5c43)cc2C(F)(F)F)CC1 [Torin 1] | -0.2 |  |  | 3.1 | 
40 | Oc1cc(O)cc(/C=C/c2ccc(O)c(O)c2)c1 [Piceatannol] | -0.6 |  |  | 0.8 | 
41 | C=CC(=O)Nc1cccc(Oc2nc(Nc3ccc(N4CCN(C)CC4)cc3)ncc2Cl)c1 [WZ3146] |  | 1.5 | 1.9 |  | 
42 | CCc1cc(Nc2nccc(-c3c(-c4ccc(OC)c(C(=O)Nc5c(F)cccc5F)c4)nc4ccccn34)n2)c(OC)cc1N1CCC(N2CCN(S(C)(=O)=O)CC2)CC1 [GSK1904529A] |  | 0.7 | 0.8 |  | 
43 | O=C(NC[C@H](O)CO)c1ccncc1Nc1ccc(I)cc1F [Pimasertib (AS-703026), Pimasertib] | 0.8 |  |  | 2.1 | 
44 | N#CC[C@H](C1CCCC1)n1cc(-c2ncnc3[nH]ccc23)cn1 [Ruxolitinib (INCB018424), Ruxolitinib] | 1.6 |  |  | 2.6 | 
45 | Oc1ccc(-c2nc(-c3ccc(F)cc3)c(-c3ccncc3)[nH]2)cc1 [SB202190 (FHPI)] |  | 0.2 | 0.7 |  | 
46 | N#CC[C@@H](C1CCCC1)n1cc(-c2ncnc3[nH]ccc23)cn1 [S-Ruxolitinib (INCB018424), S-Ruxolitinib] | 0.9 |  |  | -0.7 | 

— publication PMC6835155, “Lessons from LIMK1 enzymology and their impact on inhibitor design” (Biochemical Journal, 2019)
